Legend:
VEGF-A165b and panVEGF = assay: STZ model of diabetes, retinal VEGF immunoblotting; format: in vivo, Norway Brown rats; conditions: diabetic rats, bidaily eye drops for 28 days, Western blot
Experimental: To determine whether compound 1 could effectively switch the splicing of VEGF in a model of diabetes we used the STZ model of diabetes in Norway Brown rats. Diabetic animals were treated with twice daily eye drops of compound 1 for four weeks and killed, and the retina dissected. Protein was extracted and subjected to immunoblotting for VEGF-A165b and panVEGF.

SRPK1 = target: T1, SRPK1 (Homo sapiens, UniProt Q96SB4); assay: In vitro kinase assay (radioactive filter binding, 33P ATP); format: biochemical
T1 construct: purchased MRC Dundee Kinase Centre (external assay service)
Experimental: Kinase assays were carried out by the MRC Dundee Kinase Centre using a radioactive filter binding assay using ^33P ATP (Hastie, et al 2006. Nat Protoc. 2006; 1(2):968-71; Bain, et al 2007. Biochem J. 2007 Dec. 15; 408(3):297-315).

pan-VEGF and VEGF-A165b = assay: Non-human primate retinal VEGF immunoblotting; format: in vivo, Cynomolgus monkeys; conditions: monkey
Experimental: Retina sections sampled from half of the eye were homogenised in NP40 lysis buffer as described in Gammons et al., 2013. The extracts were then immunoblotted using either rabbit anti-panVEGF (Santa Cruz A20 sc-152; 1:500) or mouse anti-VEGFi65b (MAB3045; R&D; 1:500).
To determine whether compound 1 could penetrate into the retina of primates we dosed cynomologous monkeys with 0.5, 1.0 or 1.5 mg/mL compound 1 twice a day for 21 days. […] Aqueous taps and plasma samples were taken during the treatment and compound 1 measured in the fluid. […] To determine if these doses were sufficient to inhibit angiogenic VEGF-A isoform expression, retinal tissue was subjected to immunoblotting using pan-VEGF or VEGF-A165b antibodies.

[1] = Rabbit pharmacokinetic study (eye drop); format: in vivo; conditions: single 50 μL eye drop, 500 μg/mL, 1, 4, 12 or 24 hours
Experimental: Rabbits were treated with a single 50 μL eye drop of pazopanib at 80 μg/ml (maximum limit of solubility) and compound R at 500 μg/mL in the initial eye drop formulation containing 1% hydroxypropyl methyl cellulose, 0.2% tyloxapol, 3.4% dextrose, 0.006% benzalkonium chloride, and 0.025% ethylenediaminetetraacetic acid with 1% DMSO in PBS or with a single 50 μL eye drop of compound 1 at 500 μg/mL in the eye drop formulation containing 7% poly-oxyl-40-stearate and 4% dextrose in PBS. No difference between the eye drop formulations was confirmed in a separate study. Rabbits were killed at the indicated time points after the eye drop, blood and eyes taken, and the retina dissected from the choroid and sclera, incisions made, and laid out flat. Retina, RPE/choroid and sclera eye compartments were dissected into 7 different areas. All samples were weighed. Compound was extracted by reverse phase extraction from the retina and choroid/sclera samples and the plasma as above, and amount determined by mass spectrometry in different areas of the eye and in the blood. […]
To determine if the compounds could access the RPE of an animal with a large eye, a rabbit was exposed to 500 μg/mL of the compound as an eye drop and the concentrations in the retina, sclera, vitreous and other eye tissues (cornea); lens; RPE/choroid were measured. […]

[2] = test system: choroidal neovascularisation; assay: Laser-induced choroidal neovascularisation (CNV); format: in vivo, C57/B6 mice
Experimental: 6-8 week-old female C57/B6 mice were anesthetized with an intraperitoneal injection of a mixture of 50 mg/kg ketamine and 0.5 mg/kg medetomidine. The pupils were immediately dilated by topical (eyedrop) application with a dilator such as 5% phenylephrine hydrochloride and 1% tropicamide. Four photocoagulation lesions were delivered with a green Merilas 532α laser (450 mW, 130 ms) between the “large” retinal vessels in clear space with no vessels in a peripapillary distribution at a distance of 1-2 disc-diameters in each eye. Only clean laser lesions with a subretinal bubble at the time of treatment were included in the study. Immediately following laser photocoagulation the animals were given topical eye drops of candidate compounds twice daily at 2 μg/mL, 0.2 μg/mL or 0.066 μg/mL or eye drop formulation control as indicated (10 μL, eyes held for 30 seconds to prevent animal wiping drop away). Experiments were performed with an initial eye drop formulation containing 1% hydroxypropyl methyl cellulose, 0.2% tyloxapol, 3.4% dextrose, 0.006% benzalkonium chloride, and 0.025% ethylenediaminetetraacetic acid with 1% DMSO in PBS and data were confirmed in a second eye drop formulation containing 7% poly-oxyl-40-stearate and 4% dextrose in PBS.
After one week, mice were anesthetized with an intraperitoneal injection of a mixture of 50 mg/kg ketamine and 0.5 mg/kg medetomidine. […]

[3] = 3 weeks bidaily dosing, FIG. 10b

T1 sequence (Q96SB4 whole entry): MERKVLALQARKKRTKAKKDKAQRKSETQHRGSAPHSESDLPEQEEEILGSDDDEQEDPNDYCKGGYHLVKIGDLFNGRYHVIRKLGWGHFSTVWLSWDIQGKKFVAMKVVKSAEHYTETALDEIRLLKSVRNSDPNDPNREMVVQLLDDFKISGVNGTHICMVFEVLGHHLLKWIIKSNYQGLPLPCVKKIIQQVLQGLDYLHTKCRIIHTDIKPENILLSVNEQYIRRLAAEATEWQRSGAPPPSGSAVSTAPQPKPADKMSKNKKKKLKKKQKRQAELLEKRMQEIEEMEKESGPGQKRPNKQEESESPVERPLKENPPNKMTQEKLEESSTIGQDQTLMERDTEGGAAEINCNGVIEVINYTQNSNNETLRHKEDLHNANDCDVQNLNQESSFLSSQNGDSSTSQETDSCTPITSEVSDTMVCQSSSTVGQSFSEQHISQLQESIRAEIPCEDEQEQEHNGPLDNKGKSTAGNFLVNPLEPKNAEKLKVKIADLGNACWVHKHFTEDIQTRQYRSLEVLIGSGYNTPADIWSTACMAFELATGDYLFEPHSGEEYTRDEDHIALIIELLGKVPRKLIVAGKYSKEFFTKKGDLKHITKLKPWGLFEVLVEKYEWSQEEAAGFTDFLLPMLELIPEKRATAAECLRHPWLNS

For `Cn1ccc(CN2CCN(c3ccc(C(F)(F)F)cc3NC(=O)c3ccc(C4CCOCC4)o3)CC2)n1` [Compound 1, N-(2-(4-((1-methyl-1H-pyrazol-3-yl)methyl)piperazin-1-yl)-5-(trifluoromethyl)phenyl)-5-(tetrahydro-2H-pyran-4-yl)furan-2-carboxamide], which “Proportion of VEGF-A165b to total VEGF” value (VEGF-A165b and panVEGF) is on record?
Its value is “increased”.

And the “Total VEGF in retina” value (VEGF-A165b and panVEGF)?
Its value is “total VEGF is reduced”.

And the VEGF-A165b in retina (VEGF-A165b and panVEGF)?
Its VEGF-A165b in retina is “VEGF-A165b is increased”.

And the IC50 (SRPK1)?
The IC50 was 4 nM.

What about the “Total VEGF levels in retina” value (pan-VEGF and VEGF-A165b; [3]) of the same molecule?
Its value is “total VEGF levels are decreased”.

And the “VEGF-A165b levels in retina” value (pan-VEGF and VEGF-A165b; [3])?
The value was “do not decrease and increase at 1 mg/ml”.

What about the “Ratio of angiogenic to anti-angiogenic VEGF-A in retina” value (pan-VEGF and VEGF-A165b; FIG. 10c) of the same molecule?
Its value is “decreases”.

And the “Retinal penetration after eye drop” value [1]?
The value was “better sustained penetration (e.g. at 4 hrs) than chemically similar molecules such as Compound R”.

And the “Anti-angiogenic activity on lesion size versus reference compounds” value ([2]; laser-induced mouse model of CNV, FIG. 7)?
The value was “same anti-angiogenic activity on lesion size as reference compounds”.

And the “Inhibition of choroidal neovascularisation” value ([2]; mouse, eye drops twice daily at 0.066 μg/mL, FIG. 7b)?
Its value is “significantly inhibited”.

— patent US12024504B2, “1-methyl-1H-pyrazol-3-yl derivatives for use in the treatment of neovascular diseases” (EXONATE LIMITED, priority 2021, dated 2024)
